From EP0847397B1, “WATER-SOLUBLE C-RING ANALOGUES OF 20 (S)-CAMPTOTHECIN” (DR. REDDY'S RESEARCH FOUNDATION, priority 1996, dated 1997)

Tests used:
UO 31 = assay: NCI in vitro 60 human tumor cell line assay; type: cell-based; settings: UO-31, 48 h, read-out: Total Growth Inhibition (TGI)
Protocol: (§1) Each test compound was screened against a battery of 60 human cell lines obtained from eight organs. In a typical procedure, the cell suspensions that were diluted according to the particular cell type and the expected target cell density (5000-40,000 cells per well based on cell growth characteristics) were added into 96-well microtiter plates. Inoculates were allowed a preincubation period of 24h at 37°C. for stabilization. Dilutions at twice the intended test concentrations were added at time zero in 100-µl aliquots to microtiter plate wells. Usually test compounds were evaluated at five 10-fold dilutions. The highest well concentration used in the test is 10^-4M. The cells are then incubated in the presence of drug (the test compound) for further 48h in 5% CO2 atmosphere and 100% humidity. At the end of this time, the adherent cells are fixed to the plate by means of trichloroacetic acid, and after a number of washes, the cell layer is treated with the protein stain Sulforhodamine B. The optical density which is proportional to protein mass, is then read by automated spectrophotometric plate readers at a wavelength of 515 nm. Readings are transferred to a microcomputer and final reports are generated using especially developed software.

SF 268 = assay: NCI in vitro 60 human tumor cell line assay; type: cell-based; settings: SF-268, 48 h, read-out: Total Growth Inhibition (TGI)
Protocol: (§2) Each test compound was screened against a battery of 60 human cell lines obtained from eight organs. In a typical procedure, the cell suspensions that were diluted according to the particular cell type and the expected target cell density (5000-40,000 cells per well based on cell growth characteristics) were added into 96-well microtiter plates. Inoculates were allowed a preincubation period of 24h at 37°C. for stabilization. Dilutions at twice the intended test concentrations were added at time zero in 100-µl aliquots to microtiter plate wells. Usually test compounds were evaluated at five 10-fold dilutions. The highest well concentration used in the test is 10^-4M. The cells are then incubated in the presence of drug (the test compound) for further 48h in 5% CO2 atmosphere and 100% humidity. At the end of this time, the adherent cells are fixed to the plate by means of trichloroacetic acid, and after a number of washes, the cell layer is treated with the protein stain Sulforhodamine B. The optical density which is proportional to protein mass, is then read by automated spectrophotometric plate readers at a wavelength of 515 nm.

H 322M = assay: NCI in vitro 60 human tumor cell line assay; type: cell-based; settings: NCI-H322M, 48 h, read-out: Total Growth Inhibition (TGI)
Protocol: as §1

OVCAR 8 = assay: NCI in vitro 60 human tumor cell line assay; type: cell-based; settings: OVCAR-8, 48 h, read-out: Total Growth Inhibition (TGI)
Protocol: as §2

SK OV3 = assay: NCI in vitro 60 human tumor cell line assay; type: cell-based; settings: SK-OV-3, 48 h, read-out: Total Growth Inhibition (TGI)
Protocol: as §2

[1] = Lactone stability in whole blood (HPLC); type: in vitro ADME; settings: human, whole blood, 1 μM, 37°C, lactone peak area relative to zero time (100%); read-out: Lactone Stability in Whole Blood (after 3 hours)
Protocol: 2. Lactone Stability in whole blood:
2 ml of blood from a healthy volunteer was collected in a tube containing 40 µl of heparin (572 IU) to prevent coagulation, 4 mM and 40 µM working solutions of the drug in DMSO were prepared and added to aliquots of whole blood to give final concentration of 100 µM and 1 µM respectively. The drug is incubated in whole blood at 37°C and 20 µl samples are collected into 180 µl of chilled methanol (-30°C) at different time intervals (0, 1, 2 & 3 hrs). Vortex and then centrifuge at 11000 rpm for 3 min in a microcentrifuge at room temperature. Dilute 100 µl of the supernatant with water to 300-500 µl depending upon the signal response (UV for 100 µM concentration and fluoroscence for 1 µM concentration) of the compound. 200 µl of the diluted sample is injected on to the HPLC column previously equilibrated with the mobile phase. The area under peak corrsponding to lactone forms is measured. Zero time peak area is taken as 100%, and the proportion of lactone peak area at different time points is calculated to determine the equilibrium lactone stability as obtained by consistent lactone proportion over two successive time points. (Biochemistry, 1994; 33:10325-10336 and J. Pharm. Sci., 1995; 84:518-519).

U 251 = assay: NCI in vitro 60 human tumor cell line assay; type: cell-based; settings: U-251, 48 h, read-out: Total Growth Inhibition (TGI)
Protocol: as §1

EKVX = assay: NCI in vitro 60 human tumor cell line assay; type: cell-based; settings: 48 h, read-out: Total Growth Inhibition (TGI)
Protocol: as §1

T 47D = assay: NCI in vitro 60 human tumor cell line assay; type: cell-based; settings: T47D, 48 h, read-out: Total Growth Inhibition (TGI)
Protocol: as §1

MDA-MB-435 = assay: NCI in vitro 60 human tumor cell line assay; type: cell-based; settings: MDA-MB-435, 48 h, read-out: Total Growth Inhibition (TGI)
MDA-N = assay: NCI in vitro 60 human tumor cell line assay; type: cell-based; settings: BREAST, 48h, read-out: Total Growth Inhibition (TGI)
Protocol: as §2

COLO 205 = assay: NCI in vitro 60 human tumor cell line assay; type: cell-based; settings: COLO 205, 48 h, read-out: Total Growth Inhibition (TGI)
Protocol: as §1

MCF 7/ ADR = assay: NCI in vitro 60 human tumor cell line assay; type: cell-based; settings: Homo sapiens, NCI/ADR-RES, 48 h, read-out: Total Growth Inhibition (TGI)
Protocol: as §1

[2] = system: NCI's 60 human tumor cell line assay; assay: cells; type: cell-based; settings: 60 cell, 48 h, read-out: IC50 (mean GI50 against NCI's 60 human tumor cell line assay)
HOP 92 = assay: NCI in vitro 60 human tumor cell line assay; type: cell-based; settings: HOP-92, 48 h, read-out: Total Growth Inhibition (TGI)
H 226 = assay: NCI in vitro 60 human tumor cell line assay; type: cell-based; settings: NCI-H226, 48 h, read-out: Total Growth Inhibition (TGI)
Protocol: as §1

HCT 116 = assay: NCI in vitro 60 human tumor cell line assay; type: cell-based; settings: HCT-116, 48 h, read-out: Total Growth Inhibition (TGI)
KM 12 = assay: NCI in vitro 60 human tumor cell line assay; type: cell-based; settings: KM12, 48 h, read-out: Total Growth Inhibition (TGI)
Protocol: as §1

H 23 = assay: NCI in vitro 60 human tumor cell line assay; type: cell-based; settings: NCI-H23, 48 h, read-out: Total Growth Inhibition (TGI)
Protocol: as §1

H 522 = assay: NCI in vitro 60 human tumor cell line assay; type: cell-based; settings: NCI-H522, 48 h, read-out: Total Growth Inhibition (TGI)
Protocol: as §1

BT 549 = assay: NCI in vitro 60 human tumor cell line assay; type: cell-based; settings: BT-549, 48 h, read-out: Total Growth Inhibition (TGI)
Protocol: as §1

Q: For `CC[C@@]1(O)C(=O)OCc2c1cc1n(c2=O)C(OCCO)c2cc3ccccc3nc2-1` (stereo partly drawn) [Example 26, 5-(2'-Hydroxyethoxy)camptothecin], which IC (TGI) (UO 31) is on record?
A: 3.89 µM

Q: What about the IC (TGI) (SF 268) of the same compound?
A: 30.9 µM

Q: What about the IC (TGI) (H 322M) of the same compound?
A: 31.6 µM

Q: What about the IC (TGI) (OVCAR 8) of the same compound?
A: 13.4 µM

Q: What about the IC (TGI) (SK OV3) of the same compound?
A: 3.8 µM

Q: What about the remaining at 3 h, 1 µM [1] of the same compound?
A: 5.3%

Q: And the IC (TGI) (U 251)?
A: 7.58 µM

Q: What about the IC (TGI) (EKVX) of the same compound?
A: 63 µM

Q: With `CC[C@@]1(O)C(=O)OCc2c1cc1n(c2=O)C(OCC(F)(F)F)c2cc3cc(O)ccc3nc2-1` (stereo partly drawn) [Example 27, 10-Hydroxy-5-trifluoroethoxycamptothecin] as the compound, how does the IC (TGI) (T 47D) read?
A: 0.81 µM

Q: What about the IC (TGI) (MDA-MB-435) of the same compound?
A: 9.62 µM

Q: What about the IC (TGI) (MDA-N) of the same compound?
A: 11 µM

Q: And the IC (TGI) (COLO 205)?
A: 19.5 µM

Q: What about the IC (TGI) (MCF 7/ ADR) of the same compound?
A: 1.25 µM

Q: And the mean GI50 [2]?
A: 0.38 µM

Q: What about the IC (TGI) (HOP 92) of the same compound?
A: 4.88 µM

Q: And the IC (TGI) (H 226)?
A: 4.75 µM

Q: And the IC (TGI) (HCT 116)?
A: 4.06 µM

Q: And the IC (TGI) (KM 12)?
A: 10.6 µM

Q: And the IC (TGI) (H 23)?
A: 0.91 µM

Q: What about the IC (TGI) (H 522) of the same compound?
A: 7.66 µM

Q: What about the IC (TGI) (BT 549) of the same compound?
A: 11.4 µM
